Test results: PubChem BioAssay (NCI)
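Assay format: 96-well plates, 48-hour exposure. GI50 is the concentration that inhibits growth by half. TGI: concentration producing complete growth inhibition.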

Assays:
Assay in all cases: NCI-60 cell line screen, 48 h
[1] = system: RPMI-8226 leukemia
[2] = system: UACC-257 melanoma
[3] = system: IGROV1 ovarian
[4] = system: BT-549 breast
[5] = system: HOP-92 NSCLC
[6] = system: 786-0 renal
[7] = system: HT29 colon
[8] = system: A498 renal
[9] = system: SF-295 CNS
[10] = system: A549 NSCLC
[11] = system: NCI-H460 lung
[12] = system: K-562 leukemia
[13] = system: SNB-75 CNS
[14] = system: U251 CNS
[15] = system: LOX IMVI melanoma
[16] = system: PC-3 prostate
[17] = system: HS 578T breast
[18] = system: T-47D breast
[19] = system: OVCAR-5 ovarian
[20] = system: HCC-2998 colon
[21] = system: COLO 205 colon
[22] = system: SK-MEL-2 melanoma
[23] = system: MOLT-4 leukemia
[24] = system: EKVX NSCLC
[25] = system: OVCAR-4 ovarian
[26] = system: NCI-H226 lung
[27] = system: HCT-15 colon
[28] = system: CAKI-1 renal
[29] = system: UO-31 renal
[30] = system: RXF 393 renal
[31] = system: SN12C renal
[32] = system: NCI/ADR-RES ovarian
[33] = system: OVCAR-8 ovarian
[34] = system: HL-60(TB) leukemia
[35] = system: SK-MEL-5 melanoma
[36] = system: ACHN renal
[37] = system: NCI-H522 lung
[38] = system: NCI-H23 lung
[39] = system: SF-268 CNS
[40] = system: SR leukemia
[41] = system: SW-620 colon
[42] = system: UACC-62 melanoma
[43] = system: MDA-MB-231 breast
[44] = system: MDA-MB-435
[45] = system: MALME-3M melanoma
[46] = system: CCRF-CEM leukemia
[47] = system: SNB-19 CNS
[48] = system: HOP-62 NSCLC
[49] = system: SK-MEL-28 melanoma
[50] = system: KM12 colon
[51] = system: MCF7 breast
[52] = system: SF-539 CNS
[53] = system: SK-OV-3 ovarian
[54] = system: M14 melanoma
[55] = system: DU-145 prostate
[56] = system: OVCAR-3 ovarian
[57] = system: HCT-116 colon
[58] = system: TK-10 renal

## COc1ccc2c(c1)=C(C=C1C=CN(O)C=C1)C(=O)N=2
[1]
  GI50: 24.1 µM
  TGI: > 67.7 µM
[2]
  GI50: 44.7 µM
  TGI: > 100 µM
[3]
  GI50: 16.2 µM
  TGI: > 94.4 µM
[4]
  GI50: 22.6 µM
  TGI: 88.1 µM
[5]
  GI50: 25.9 µM
  TGI: > 100 µM
[6]
  GI50: 31 µM
  TGI: > 92.3 µM
[7]
  GI50: 17.1 µM
  TGI: > 66.8 µM
[8]
  GI50: 19.7 µM
  TGI: > 73.2 µM
[9]
  GI50: 34.3 µM
  TGI: > 93.8 µM
[10]
  GI50: 29.8 µM
  TGI: > 100 µM
[11]
  GI50: > 50.1 µM
  TGI: > 88.3 µM
[12]
  GI50: 3.55 µM
  TGI: > 100 µM
[13]
  GI50: 15.6 µM
  TGI: > 88.4 µM
[14]
  GI50: 27.3 µM
  TGI: > 100 µM
[15]
  GI50: 23.9 µM
  TGI: > 67.3 µM
[16]
  GI50: 29.5 µM
  TGI: > 100 µM
[17]
  GI50: 32.1 µM
  TGI: > 86.3 µM
[18]
  GI50: 6.34 µM
  TGI: > 68.7 µM
[19]
  GI50: 12.7 µM
  TGI: 50.8 µM
[20]
  GI50: 21.8 µM
  TGI: 47 µM
[21]
  GI50: 3.84 µM
  TGI: 32.8 µM
[22]
  GI50: 26.7 µM
  TGI: 73.7 µM
[23]
  GI50: 31.2 µM
  TGI: > 100 µM
[24]
  GI50: 43.9 µM
  TGI: > 100 µM
[25]
  GI50: 9.96 µM
  TGI: > 100 µM
[26]
  GI50: 25.7 µM
  TGI: 97.5 µM
[27]
  GI50: 25 µM
  TGI: > 75.9 µM
[28]
  GI50: 28.2 µM
  TGI: > 89.6 µM
[29]
  GI50: 19.8 µM
  TGI: > 92.6 µM
[30]
  GI50: 33.9 µM
  TGI: 98.3 µM
[31]
  GI50: 22.1 µM
  TGI: 59.2 µM
[32]
  GI50: 30.3 µM
  TGI: > 86.9 µM
[33]
  GI50: 29.9 µM
  TGI: 99.7 µM
[34]
  GI50: 22.4 µM
  TGI: 49.9 µM
[35]
  GI50: 22.8 µM
  TGI: 63.9 µM
[36]
  GI50: 23.5 µM
  TGI: > 100 µM
[37]
  GI50: 20.5 µM
  TGI: 61.6 µM
[38]
  GI50: 23.8 µM
  TGI: 72.3 µM
[39]
  GI50: 28.1 µM
  TGI: 93.2 µM
[40]
  GI50: 18.2 µM
  TGI: > 100 µM
[41]
  GI50: 25.5 µM
  TGI: > 67.8 µM
[42]
  GI50: 26.3 µM
  TGI: 86.1 µM
[43]
  GI50: 23.6 µM
  TGI: > 100 µM
[44]
  GI50: 35 µM
  TGI: > 89.6 µM
[45]
  GI50: 24.3 µM
  TGI: 55.9 µM
[46]
  GI50: 25.3 µM
  TGI: > 79.1 µM
[47]
  GI50: 10.6 µM
  TGI: 64.8 µM
[48]
  GI50: 40.2 µM
  TGI: > 100 µM
[49]
  GI50: 27 µM
  TGI: > 100 µM
[50]
  GI50: 17.4 µM
  TGI: 41.3 µM
[51]
  GI50: 20.9 µM
  TGI: > 100 µM
[52]
  GI50: 28.8 µM
  TGI: > 65.8 µM
[53]
  GI50: 18.8 µM
  TGI: 54.5 µM
[54]
  GI50: 24.6 µM
  TGI: 65.9 µM
[55]
  GI50: 32.5 µM
  TGI: > 100 µM
[56]
  GI50: 26.2 µM
  TGI: > 78.1 µM
[57]
  GI50: 28.9 µM
  TGI: > 100 µM
[58]
  GI50: 36.3 µM
  TGI: > 90.5 µM
